The source of these data is patent US20200239530A1, “COMPOUNDS AND METHODS OF MODULATING PROTEIN DEGRADATION” (Vividion Therapeutics, Inc., priority 2017, published 2020).

The target of experiment [1] is T1, CDK16 Cyclin-dependent kinase 16 (Homo sapiens, UniProt Q00536).
T1 construct: 200 μL of lysate containing 5 mg/ml proteome was treated with 2 μL of 100× compound stock; endogenous in cells
Put plainly: Cysteine liganding, probe competition. The class given is binding. Particulars: for Liganded: CDK16 Res# 206, uniprot Q00536. The method in brief: (§1)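 Probe competition in native proteome: 5 mg/ml lysate, compound 1 hr 25° C, then desthiobiotin iodoacetamide (10 mM stock) 1 hr 25° C; acetone ppt, urea/DTT reduction, iodoacetamide alkylation, trypsin, streptavidin pull-down.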

For experiment [2], the target named is T2, FBXO11 F-box only protein 11 (Homo sapiens, UniProt Q86XK2).
T2 construct: Cells were resuspended in cold PBS on ice and sonicated with a probe sonicator to achieve lysis; endogenous in cells
T2 sequence (Q86XK2 1-927): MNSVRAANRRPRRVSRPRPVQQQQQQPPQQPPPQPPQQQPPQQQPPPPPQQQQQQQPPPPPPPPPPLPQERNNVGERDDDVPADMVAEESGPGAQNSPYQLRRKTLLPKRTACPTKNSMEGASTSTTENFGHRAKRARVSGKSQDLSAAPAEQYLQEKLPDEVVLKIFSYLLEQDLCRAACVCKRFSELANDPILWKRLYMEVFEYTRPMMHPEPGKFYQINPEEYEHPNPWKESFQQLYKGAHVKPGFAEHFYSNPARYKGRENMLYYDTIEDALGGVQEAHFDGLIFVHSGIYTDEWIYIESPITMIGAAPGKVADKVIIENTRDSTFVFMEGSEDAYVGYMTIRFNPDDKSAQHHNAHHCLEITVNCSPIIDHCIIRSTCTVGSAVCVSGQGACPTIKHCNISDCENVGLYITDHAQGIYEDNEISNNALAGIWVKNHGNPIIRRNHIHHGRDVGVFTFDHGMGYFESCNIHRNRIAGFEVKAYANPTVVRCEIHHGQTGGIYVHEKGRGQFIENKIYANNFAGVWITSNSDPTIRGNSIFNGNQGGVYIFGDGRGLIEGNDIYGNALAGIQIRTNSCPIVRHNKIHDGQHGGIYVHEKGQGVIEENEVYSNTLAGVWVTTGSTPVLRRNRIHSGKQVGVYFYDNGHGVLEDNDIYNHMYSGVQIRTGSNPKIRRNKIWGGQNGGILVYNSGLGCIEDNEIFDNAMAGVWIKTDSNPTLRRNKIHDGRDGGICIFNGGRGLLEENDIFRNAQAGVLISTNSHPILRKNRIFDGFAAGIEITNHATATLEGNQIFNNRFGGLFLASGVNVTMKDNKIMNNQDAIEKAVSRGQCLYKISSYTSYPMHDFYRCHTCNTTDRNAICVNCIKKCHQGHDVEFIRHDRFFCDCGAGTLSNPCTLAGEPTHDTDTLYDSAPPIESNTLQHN
Put plainly: Cysteine liganding, probe competition. It counts as binding. The method, boiled down:
as §1

T1 sequence (Q00536 whole entry): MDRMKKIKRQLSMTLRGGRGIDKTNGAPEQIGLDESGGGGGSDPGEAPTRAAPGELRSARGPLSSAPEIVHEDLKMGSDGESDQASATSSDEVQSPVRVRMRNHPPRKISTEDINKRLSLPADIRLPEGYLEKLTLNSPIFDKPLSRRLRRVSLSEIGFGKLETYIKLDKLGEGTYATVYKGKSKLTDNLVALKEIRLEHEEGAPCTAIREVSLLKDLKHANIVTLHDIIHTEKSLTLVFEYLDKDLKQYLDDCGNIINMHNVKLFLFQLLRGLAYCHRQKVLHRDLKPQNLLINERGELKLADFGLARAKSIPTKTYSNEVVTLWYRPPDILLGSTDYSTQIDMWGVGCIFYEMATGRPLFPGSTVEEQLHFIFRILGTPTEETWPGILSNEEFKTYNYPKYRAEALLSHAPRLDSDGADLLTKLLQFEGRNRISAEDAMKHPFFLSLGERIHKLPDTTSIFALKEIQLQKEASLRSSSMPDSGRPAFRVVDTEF

`O=C(CCl)Nc1cc(C(F)(F)F)cc(C(F)(F)F)c1` [KBO3]: the Liganded entry in experiment [1] was “YES”. In experiment [1] (uniprot Q00536), the “100 Max” value was 50.67, the 100 ave stood at 28.2075 and the 500 ave is reported as 79.225. Moreover, in experiment [1] (uniprot Q00536, in % (unit assumed)), the “500 Max” value is on record as 80.44. In experiment [2] (uniprot Q86XK2), the “100 Max” value is −13.9, the 100 ave is −20.1, the “500 Max” value is recorded as 28.6 and the 500 ave is 20.3.
Regarding `COc1ccc2c(c1)CCCN2C(=O)CCl` [KB02], the Liganded result was “YES” in experiment [1] and “YES” in experiment [2] (FBXO11 Res# 581, uniprot Q86XK2).
